Data as given in patent US20250281460A1, “PEGYLATED BILIRUBIN FOR THE TREATMENT OF […], OBESITY, FATTY LIVER DISEASE, CARDIOVASCULAR DISEASES AND TYPE II DIABETES” (The University of Toledo, priority 2019, published 2025).

System: BAT PPARα CRISPR KO cells
Assay: Seahorse analysis in BAT PPARα CRISPR KO cells
Assay type: cell-based, mouse
Conditions: both KO clones, 24 hours
Text: To further delineate the actions of bilirubin on BAT, CRISPR technology was developed to knockout (KO) PPARα and establish two null clone lines. […]. The function of the ligands was lost in both clones for the BAT PPARα CRISPR KO cells.
CRISPR-Technology was employed in BAT as previously described to excise part of Exon 3 and Exon 4 of the PPARα gene to create a PPARα Knockout BAT cell line. Two sgRNAs with high efficacy and low off-target scores were identified on Exon 3 and 4 of the mouse PPARα gene using Benchling online software. The two Cas9 targets were separated by 9,465 bases. All of the off-targets to our PPARα sgRNA had 4 mismatches, of which at least 1-2 were within the seed region (up to 12 bases proximal to the protospacer adjacent motif (PAM) site) which reduces the likelihood of Cas9 off-target effects. The multiplex sgRNAs were generated using the PrecisionX Multiplex gRNA Cloning Kit according to manufacturer instructions. […] After 36 h of transfection, cells with the top 10% level of fluorescence were single-sorted into 96-well plates by fluorescent activated cell sorting. […]
Cellular respiration was quantified using the Seahorse Extracellular Flux Analyzer XF-96 (Agilent Technologies, Cedar Creek, TX). […] The oxygen consumption rate (OCR) and extracellular acidification rate (ECAR) were used to quantify the cellular energy phenotype of the cells. […]

Structure (SMILES): C=CC1=C(C)/C(=C/C2=NC(=C\c3[nH]c(/C=C4\NC(=O)C(C)=C4C=C)c(C)c3CCC(=O)O)/C(CCC(=O)O)=C2C)NC1=O [biliverdin]
- function of the ligands on mitochondrial function (OCR): lost
